The source of these data is US4405634A, “Imidazole derivatives for treating myocardial infarction” (Burroughs Wellcome Co., priority 1977, dated 1983).

The subject of experiment [1] is PGE, PGF and PGD (anti-aggregatory-prostaglandin generating enzymes). Nature of the experiment: selectivity: amount of PGE, PGF and PGD produced by homogenised horse platelets. Set-up: key: O indicates no selectivity; + low selectivity; ++ medium selectivity. The experiment is classed as biochemical. The note with it: the greater the selectivity, the more anti-aggregating prostaglandins are produced. The protocol:
(§1) Horse platelets were prepared from whole horse blood by differential centrifugation. Approximately 10^6 platelets were homogenised in 1 ml 100 mM Tris buffer pH 7.4. Various concentrations of active compound were added and the reaction sets incubated for 5 minutes at ambient temperature. To each tube was added 20 nM of arachidonic acid containing 10^6 DPM of labelled arachidonic acid and the tubes incubated for 3 minutes at 37° C. in a shaking water bath. After incubation the radioactive products were extracted from the acidified aqueous phase with ethyl acetate and after concentration resolved by thin layer chromotography on silica gel with chloroform/methanol/acetic acid/water (90:8:1:0.8) as a developing solvent. The amount of thromboxane produced was measured by scraping the radioactive zone corresponding to thromboxane B2 and estimating the radioactivity in a liquid scintillation counter.
The selectivity of the active compounds was measured in a similar manner to that described above and the amount of PGE, PGF and PGD produced was determined. The greater the selectivity, the more of the anti-aggregating prostaglandins are produced.
The ED50 and Selectivity results are shown in Table A in which O indicates no selectivity; + low selectivity and ++ medium selectivity.

The target in the next experiment is T1, TXA2 synthetase (Equus caballus, UniProt A0A9L0T8T9).
T1 construct: arachidonic acid substrate, thromboxane B2 measured by radio-TLC
T1 sequence (A0A9L0T8T9 2-534): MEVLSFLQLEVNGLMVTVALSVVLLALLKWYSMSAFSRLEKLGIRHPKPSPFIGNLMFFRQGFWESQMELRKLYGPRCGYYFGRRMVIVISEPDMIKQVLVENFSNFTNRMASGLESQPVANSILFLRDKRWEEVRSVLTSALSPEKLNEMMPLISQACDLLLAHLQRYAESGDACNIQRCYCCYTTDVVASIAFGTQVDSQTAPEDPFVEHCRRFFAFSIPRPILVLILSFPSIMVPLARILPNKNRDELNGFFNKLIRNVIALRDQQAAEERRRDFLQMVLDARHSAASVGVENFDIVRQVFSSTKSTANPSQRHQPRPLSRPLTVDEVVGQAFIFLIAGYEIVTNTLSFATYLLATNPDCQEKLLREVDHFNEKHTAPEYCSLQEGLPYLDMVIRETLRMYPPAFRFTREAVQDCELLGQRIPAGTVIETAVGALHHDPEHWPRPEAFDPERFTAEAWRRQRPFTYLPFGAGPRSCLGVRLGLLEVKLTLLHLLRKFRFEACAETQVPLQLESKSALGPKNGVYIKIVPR
T1 sequence (F7BQR7 24-599 partner): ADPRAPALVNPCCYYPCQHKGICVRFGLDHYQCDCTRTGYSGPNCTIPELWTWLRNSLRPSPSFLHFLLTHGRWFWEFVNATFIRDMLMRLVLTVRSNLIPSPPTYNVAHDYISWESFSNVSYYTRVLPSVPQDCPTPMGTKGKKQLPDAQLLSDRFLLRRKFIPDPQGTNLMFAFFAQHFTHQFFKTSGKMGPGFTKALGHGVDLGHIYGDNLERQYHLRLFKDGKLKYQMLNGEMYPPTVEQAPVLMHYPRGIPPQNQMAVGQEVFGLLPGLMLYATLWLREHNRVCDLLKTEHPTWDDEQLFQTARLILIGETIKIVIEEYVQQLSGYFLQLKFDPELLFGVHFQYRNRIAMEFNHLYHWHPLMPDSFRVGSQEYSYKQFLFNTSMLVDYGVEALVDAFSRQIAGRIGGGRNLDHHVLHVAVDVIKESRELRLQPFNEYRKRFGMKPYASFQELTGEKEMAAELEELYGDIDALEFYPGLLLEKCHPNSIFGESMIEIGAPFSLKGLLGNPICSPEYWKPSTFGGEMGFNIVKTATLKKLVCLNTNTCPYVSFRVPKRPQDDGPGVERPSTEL
Nature of the experiment: thromboxane production from labelled arachidonic acid by homogenised horse platelets (concentration to reduce the enzyme activity by 50%). It counts as biochemical. The note with it: horse platelet homogenate, pH 7.4, 5 min preincubation, 3 min at 37° C. with arachidonic acid, read-out: ED50 (the source's name) (converted). As for the experimental part:
as §1
The concentration of active compound to reduce the enzyme activity by 50% (ED50) was established.

A further experiment has as its system platelet clumps. Nature of the experiment: disaggregation of platelet clumps.
A further experiment deals with platelet aggregation. Nature of the experiment: inhibition of platelet aggregation in vivo.
In experiment [2] the test system is enzymic conversion of the endoperoxides (PGG2 and PGH2) to thromboxane A2. The note with it: platelet microsomes; Moncada et al., Prostaglandins, 13/4, 611-618, 1977; cited from earlier work.
A further experiment has as its system serum cholesterol. Particulars: U.K. Pat. No. 1 364 312; Biochem. Pharmacol. 24, 1902-1903, 1975; cited from earlier work.

With `Cc1cc(C)c(Cn2ccnc2)c(C)c1` [1-(2,4,6-Trimethylbenzyl)imidazole, 1-(2,4,6-trimethylbenzyl)imidazole], the Selectivity result in experiment [1] is on record as “++”. The IC50 at TXA2 synthetase is 17 µM. Turning to `Cc1ccc(Cn2ccnc2)cc1C` [1-(3,4-Dimethylbenzyl)imidazole, 1-(3,4-dimethylbenzyl)imidazole], in the experiment with platelet clumps, the disaggregating platelet clumps result is “capable of disaggregating platelet clumps”. In addition, the Selectivity result in experiment [1] is on record as “++”. Besides, the “inhibiting platelet aggregation in vivo” value in the experiment with platelet aggregation was “capable of inhibiting platelet aggregation in vivo”. For the same molecule, the IC50 at TXA2 synthetase is 32.2 µM.

As for `Clc1ccc(C=CCn2ccnc2)c(Cl)c1` [1-[3-(2,4-dichlorophenyl)prop-2-enyl]imidazole], the Selectivity result in experiment [1] is on record as “+”. The IC50 at TXA2 synthetase is 16.2 µM.

On to `Clc1cccc(Cl)c1C=CCn1ccnc1` [1-[3-(2,6-dichlorophenyl)prop-2-enyl]imidazole], for which the Selectivity entry in experiment [1] is “+”. The IC50 at TXA2 synthetase was 3.95 µM.

`Cn1ccnc1` [1-methylimidazole]: the “inhibition of the enzymic conversion of PGG2 and PGH2 to thromboxane A2” value in experiment [2] is reported as “some degree of inhibition”.

For the molecule `CCCCCCCCCCCCn1ccnc1` [1-n-dodecylimidazole], the “lowering serum cholesterol levels” value in the experiment on serum cholesterol is “capable of lowering serum cholesterol levels”.

Take `c1c[nH]cn1` [Imidazole]: the “inhibition of the enzymic conversion of PGG2 and PGH2 to thromboxane A2” value in experiment [2] was “some degree of inhibition”.
